The values below come from patent US20150352108A1, “AMINO-PYRIMIDINE COMPOUNDS AS INHIBITORS OF TBK1 AND/OR IKK EPSILON” (Alzheimer's Institute of America, priority 2009, published 2015).

Bounds are passed on as bounds.

The target of one test is T1, IKKε (Homo sapiens, UniProt Q14164).
T1 construct: His-tag; made in house; host or cells: Sf9 insect cells
T1 sequence (Q14164 1-716): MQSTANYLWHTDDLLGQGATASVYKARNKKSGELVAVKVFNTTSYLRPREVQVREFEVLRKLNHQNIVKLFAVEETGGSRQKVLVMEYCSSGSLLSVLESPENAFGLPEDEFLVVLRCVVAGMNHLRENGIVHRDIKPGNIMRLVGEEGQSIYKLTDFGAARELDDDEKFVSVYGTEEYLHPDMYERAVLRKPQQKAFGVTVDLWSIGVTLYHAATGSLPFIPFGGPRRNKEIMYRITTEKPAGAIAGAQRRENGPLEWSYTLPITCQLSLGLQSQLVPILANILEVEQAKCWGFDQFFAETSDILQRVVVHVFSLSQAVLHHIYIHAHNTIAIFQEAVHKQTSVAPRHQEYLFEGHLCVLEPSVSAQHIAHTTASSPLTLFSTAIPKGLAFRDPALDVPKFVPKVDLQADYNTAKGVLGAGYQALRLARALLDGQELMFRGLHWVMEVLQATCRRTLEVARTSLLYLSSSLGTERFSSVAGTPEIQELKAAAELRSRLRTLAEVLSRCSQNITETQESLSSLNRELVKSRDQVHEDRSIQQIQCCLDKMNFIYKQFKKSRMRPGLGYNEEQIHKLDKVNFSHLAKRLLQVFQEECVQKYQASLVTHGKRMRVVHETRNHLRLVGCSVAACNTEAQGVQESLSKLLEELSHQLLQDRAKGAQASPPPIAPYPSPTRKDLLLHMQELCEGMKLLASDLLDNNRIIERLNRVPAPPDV
The test is described as follows: In-vitro IKKε kinase assay ([γ33]ATP filter-plate). It counts as biochemical. To be noted: text bins; read-out: IC50 for inhibition of the kinase activity of IKKε. Put shortly:
(§1)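 His-tagged IKKε and TBK1 from Sf9 cells were assayed with myelin basic protein or casein and [γ33]ATP at 2×Km ATP (32 μM for IKKε, 60 μM for TBK1). Enzyme was 0.1 or 0.015 μg/ml for IKKε and 0.1 or 0.02 μg/ml for TBK1 (normal/sensitized). Reactions ran 30-45 min, were filter-captured, scintillation-counted, and normalized to DMSO after background subtraction.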

In another test the target is T2, TBK1 (Homo sapiens, UniProt Q9UHD2).
T2 construct: His-tag; made in house; host or cells: Sf9 insect cells
T2 sequence (Q9UHD2 1-729): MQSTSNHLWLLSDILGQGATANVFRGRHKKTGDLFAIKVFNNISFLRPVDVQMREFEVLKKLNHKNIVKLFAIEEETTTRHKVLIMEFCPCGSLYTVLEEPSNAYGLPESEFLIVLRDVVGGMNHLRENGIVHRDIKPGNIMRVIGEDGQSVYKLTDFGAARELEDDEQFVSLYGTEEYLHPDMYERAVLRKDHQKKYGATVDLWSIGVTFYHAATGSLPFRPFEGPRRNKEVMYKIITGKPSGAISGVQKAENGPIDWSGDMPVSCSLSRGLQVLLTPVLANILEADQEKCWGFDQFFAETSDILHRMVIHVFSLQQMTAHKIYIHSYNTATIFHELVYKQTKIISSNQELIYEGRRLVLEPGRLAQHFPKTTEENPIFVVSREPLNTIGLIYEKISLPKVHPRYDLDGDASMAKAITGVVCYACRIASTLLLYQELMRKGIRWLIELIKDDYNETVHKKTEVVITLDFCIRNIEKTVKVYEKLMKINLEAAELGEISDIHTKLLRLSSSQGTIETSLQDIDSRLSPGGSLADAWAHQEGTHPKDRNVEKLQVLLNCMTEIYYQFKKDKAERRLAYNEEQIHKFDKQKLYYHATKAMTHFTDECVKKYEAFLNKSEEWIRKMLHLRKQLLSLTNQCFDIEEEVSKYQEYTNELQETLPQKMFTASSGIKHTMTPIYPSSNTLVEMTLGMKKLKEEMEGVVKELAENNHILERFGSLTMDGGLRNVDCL
Briefly: In-vitro TBK1 kinase assay ([γ33]ATP filter-plate). The format is biochemical. To be noted: text bins; read-out: IC50 for inhibition of the kinase activity of TBK1. Put shortly: as §1

One may read the IC50 as the concentration at which inhibition is half-maximal. As to `COc1ccc(Nc2nccc(-c3ccc(OC(C)C)c(C#N)c3)n2)cc1OC` [Example 111, 5-{2-[(3,4-Dimethoxyphenyl)amino]pyrimidin-4-yl}-2-(propan-2-yloxy)benzonitrile], the 50% inhibitory concentration (IC50) at IKKε is less than 5 nM; at TBK1, less than 10 nM.
The corresponding values for `CN(C)CC(=O)Nc1ccc(Nc2nccc(-c3cccc(C#N)c3)n2)cc1` [Example 183] are 50 to 500 nM and 10 to 100 nM.
The corresponding values for `COc1ccc(-c2ccnc(Nc3ccc(N4CCS(=O)(=O)CC4)cc3)n2)cc1C#N` [compound 313] are 5 to 50 nM and 10 to 100 nM.
The corresponding values for `N#Cc1cc(-c2ccnc(Nc3ccc(N4CCOCC4)cc3)n2)ccc1OCCN` [Example 220, 2-(2-aminoethoxy)-5-(2-{[4-(morpholin-4-yl)phenyl]amino}pyrimidin-4-yl)benzonitrile] are 5 to 50 nM and less than 10 nM.
Regarding `COc1cc(Nc2nccc(-c3ccc(OC4CCN(C(=O)[C@H](C)O)CC4)c(C#N)c3)n2)ccc1C(=O)NCCCN(C)C` [compound 376, 4-({4-[3-cyano-4-({1-[(2S)-2-hydroxypropanoyl]piperidin-4-yl}oxy)phenyl]pyrimidin-2-yl}amino)-N-[3-(dimethylamino)propyl]-2-methoxybenzamide], the results for the IC50 on IKKε and on TBK1 were less than 5 nM and less than 10 nM, respectively.
The corresponding values for `COc1cc(Nc2nccc(-c3ccc(OC4CCOCC4)c(C#N)c3)n2)ccc1C(=O)N1CC2CC1CN2` (centres unmarked) [compound 496, 5-(2-{[4-(2,5-diazabicyclo[2.2.1]hept-2-ylcarbonyl)-3-methoxyphenyl]amino}pyrimidin-4-yl)-2-(tetrahydro-2H-pyran-4-yloxy)benzonitrile] are less than 5 nM and less than 10 nM.
Turning to `CC(C)C(=O)Nc1ccc(-c2ccnc(Nc3cccc(CC(=O)N4CCN(C(C)C)CC4)c3)n2)cc1C#N` [compound 423, N-(2-cyano-4-{2-[(3-{2-oxo-2-[4-(propan-2-yl)piperazin-1-yl]ethyl}phenyl)amino]pyrimidin-4-yl}phenyl)-2-methylpropanamide], the IC50 is 5 to 50 nM on IKKε and less than 10 nM on TBK1.
The corresponding values for `COc1ccc(-c2ccnc(Nc3ccc(N4CCN(C)CC4)cc3)n2)cc1C#N` [compound 297, 2-Methoxy-5-(2-{[4-(4-methylpiperazin-1-yl)phenyl]amino}pyrimidin-4-yl)benzonitrile] are 5 to 50 nM and less than 10 nM.
The corresponding values for `COc1cc(Nc2nccc(-c3ccc(OC4CCN(C(=O)[C@H](C)O)C4)c(C#N)c3)n2)ccc1N1CCOCC1` (stereo partly drawn) [Example 116, 2-({1-[(2S)-2-hydroxypropanoyl]pyrrolidin-3-yl}oxy)-5-(2-{[3-methoxy-4-(morpholin-4-yl)phenyl]amino}pyrimidin-4-yl)benzonitrile] are 5 to 50 nM and less than 10 nM.
The corresponding values for `N#Cc1cc(-c2ccnc(Nc3ccc(NC(=O)Nc4ccncc4)cc3)n2)ccc1OC1CCOCC1` [Example 17, 1-[4-({4-[3-cyano-4-(tetrahydro-2H-pyran-4-yloxy)phenyl]pyrimidin-2-yl}amino)phenyl]-3-pyridin-4-ylurea] are 5 to 50 nM and 10 to 100 nM.
Turning to `COc1ccc(-c2ccnc(Nc3ccc(CN(C)C)cc3)n2)cc1C#N` [Example 45, 5-[2-({4-[(Dimethylamino)methyl]phenyl}amino)pyrimidin-4-yl]-2-methoxybenzonitrile], the IC50 is 50 to 500 nM at IKKε and 10 to 100 nM at TBK1.
The corresponding values for `N#Cc1cc(-c2ccnc(Nc3ccc(N4CCOCC4)cc3)n2)ccc1OCCO` [Example 239, 2-(2-Hydroxyethoxy)-5-(2-{[4-(morpholin-4-yl)phenyl]amino}pyrimidin-4-yl)benzonitrile] are less than 5 nM and less than 10 nM.
The corresponding values for `COc1cc(NC(=O)NCCCO)cc(Nc2nccc(-c3ccc(OC)c(C#N)c3)n2)c1` [compound 315, 1-(3-{[4-(3-Cyano-4-methoxyphenyl)pyrimidin-2-yl]amino}-5-methoxyphenyl)-3-(3-hydroxypropyl)urea] are 5 to 50 nM and less than 10 nM.
